In brackets after ≈: the same amount, converted by molar mass.
Columns and labels:
[1] = system: bacteria; test: 2,2′-(octylimino)bisethanol in K-Oleate, incubated at 32° C., cATP (LuminUltra); type: cell-based
Protocol: (§1) A solution of 2,2′-(octylimino)bisethanol was added to two different solutions comprising two different surfactants, in two different concentrations of 0.50% and 1.00%. The four different solutions incubated at 32° C. and analysed for microbial activity and microbial contamination using […] Adenosine Triphosphate cATP as a measure of microbial contamination using LuminUltra® microbial monitoring system (see e.g. Examples 1, 5 and 6). The results are summarized in tables XXV and XXVI, where “additive” refers to 2,2′-(octylimino)bisethanol.

[2] = system: bacteria; test: 2,2′-(octylimino)bisethanol in common surfactant/soap, at 32° C., cATP (LuminUltra); type: cell-based
Protocol: as §1

[3] = system: bacteria; test: 2,2′-(octylimino)bisethanol in contaminated solution of polyisocyanate crosslinker, 32° C., cATP (LuminUltra); type: cell-based; conditions: for bacteria count: 32° C.
Protocol: For further analysing the biocidal effect of 2,2′-(octylimino)bisethanol, a solution of 2,2′-(octylimino)bisethanol was added into a contaminated solution of polyisocyanate crosslinker in two different concentrations of 0.50% and 1.00%, incubated at 32° C. and analysed for microbial activity and microbial contamination using […] Adenosine Triphosphate cATP as a measure of microbial contamination using LuminUltra® microbial monitoring system.

[4] = cited from earlier work
[5] = system: bacteria; test: APDEA in different PVB dispersions at 32° C., ATP analysis (LuminUltra); type: cell-based; design: bacteria count 6 mo after adding APDEA / bacteria count 1 d after adding APDEA / bacteria count 1 wk after adding APDEA / bacteria count 1 mo after adding APDEA / bacteria count 3 mo after adding APDEA: unit not given here
Protocol: Tertiary amine, water and PVB-dispersion was mechanically stirred in IKA vertical fixed blade stirrer for sampling in 2-5 minutes. Conditions was industrial clean, meaning no special precautions was taken to prevent contamination, except normal cleanliness and between operations dishwashing procedures.
Working temperatures was 20-25 degre Celsius, and all incubations was made in thermostatic 32-degree Celsius incubator ovens for bottled flasks and open petri dishes.
Before measuring total ATP, the samples are shaken for 30 seconds in a mechanical mixer. 1 ml of each sample is used in the process of analysing total ATP. The protocol is provided by LuminUltra Technologies.
The biocidal effectivity of APDEA in different PVB dispersions was measured as explained above in example 46. Incubation was done at 32° C. and sample tested 1 day (abbreviated as 1d in table XX), 1 week (abbreviated as 1 wk in table XX) and 1, 3 and 6 months (abbreviated as mo in tables XXIII and XXIV) after addition of APDEA.

[6] = system: rat; conditions: cited from earlier work
[7] = 0.50% in common surfactant/soap
[8] = 1.00% in common surfactant/soap
[9] = 0.5% APDEA, PVB dispersion FX2, 32° C.
[10] = 0.5% APDEA, PVB dispersion FX6, 32° C.
[11] = 0.5% APDEA, PVB dispersion MW, 32° C.
[12] = 0.5% APDEA, PVB dispersion SX2, 32° C.
[13] = 0.5% APDEA, PVB dispersion WX2, 32° C.
[14] = 0.5% APDEA, PVB dispersion WX25, 32° C.
[15] = 1.0% APDEA, PVB dispersion FX2, 32° C.
[16] = 1.0% APDEA, PVB dispersion FX6, 32° C.
[17] = 1.0% APDEA, PVB dispersion MW, 32° C.
[18] = 1.0% APDEA, PVB dispersion SX2, 32° C.
[19] = 1.0% APDEA, PVB dispersion WX2, 32° C.
[20] = 1.0% APDEA, PVB dispersion WX25, 32° C.

Question: Which results are given for CCCCCCCCN(CCO)CCO [2,2′-(octylimino)bisethanol]?
Answer: BSI (1 day after adding additive) ([1]; 0.50% in K-Oleate): 29; BSI (after 1 month) ([1]; 0.50% in K-Oleate): 68; BSI (after 1 week) ([1]; 0.50% in K-Oleate): 52; BSI (after 3 months) ([1]; 0.50% in K-Oleate): 80.1; BSI (after 9 months) ([1]; 0.50% in K-Oleate): 81.3; bacteria count (1 day after adding additive) ([1]; 0.50% in K-Oleate): 789; bacteria count (after 1 month) ([1]; 0.50% in K-Oleate): 215; bacteria count (after 1 week) ([1]; 0.50% in K-Oleate): 758; bacteria count (after 3 months) ([1]; 0.50% in K-Oleate): 88; bacteria count (after 6 months) ([1]; 0.50% in K-Oleate): 0; bacteria count (after 9 months) ([1]; 0.50% in K-Oleate): 30; BSI (1 day after adding additive) ([1]; 1.00% in K-Oleate): 35; BSI (after 1 month) ([1]; 1.00% in K-Oleate): 71; BSI (after 1 week) ([1]; 1.00% in K-Oleate): 43; BSI (after 3 months) ([1]; 1.00% in K-Oleate): 82.4; BSI (after 6 months) ([1]; 1.00% in K-Oleate): 30.6; BSI (after 9 months) ([1]; 1.00% in K-Oleate): 88.8; bacteria count (1 day after adding additive) ([1]; 1.00% in K-Oleate): 284; bacteria count (after 1 month) ([1]; 1.00% in K-Oleate): 50; bacteria count (after 1 week) ([1]; 1.00% in K-Oleate): 176; bacteria count (after 3 months) ([1]; 1.00% in K-Oleate): 39; bacteria count (after 6 months) ([1]; 1.00% in K-Oleate): 629; bacteria count (after 9 months) ([1]; 1.00% in K-Oleate): 13; BSI (1 day after adding additive) [2, 7]: 18; BSI (after 1 month) [2, 7]: 47; BSI (after 1 week) [2, 7]: 14; BSI (after 3 months) [2, 7]: 75; BSI (after 9 months) [2, 7]: 90.8; bacteria count (1 day after adding additive) [2, 7]: 917; bacteria count (after 1 month) [2, 7]: 360; bacteria count (after 1 week) [2, 7]: 5040; bacteria count (after 3 months) [2, 7]: 28.5; bacteria count (after 6 months) [2, 7]: 0; bacteria count (after 9 months) [2, 7]: 7.5; BSI (1 day after adding additive) [2, 8]: 18; BSI (after 1 month) [2, 8]: 80; BSI (after 1 week) [2, 8]: 13; BSI (after 3 months) [2, 8]: 53.1; BSI (after 6 months) [2, 8]: 55.6; BSI (after 9 months) [2, 8]: 39.2; bacteria count (1 day after adding additive) [2, 8]: 369; bacteria count (after 1 month) [2, 8]: 2.6; bacteria count (after 1 week) [2, 8]: 141; bacteria count (after 3 months) [2, 8]: 20.7; bacteria count (after 6 months) [2, 8]: 5.86; bacteria count (after 9 months) [2, 8]: 10.5; bacteria count ([3]; 0.50%, 1 day after adding additive): 226; bacteria count ([3]; 0.50%, after 1 month): 20; bacteria count ([3]; 0.50%, after 1 week): 20; bacteria count ([3]; 0.50%, after 3 months): 282; bacteria count ([3]; 0.50%, after 6 months): 0; bacteria count ([3]; 1.00%, 1 day after adding additive): 174; bacteria count ([3]; 1.00%, after 1 month): 155; bacteria count ([3]; 1.00%, after 1 week): 180; bacteria count ([3]; 1.00%, after 3 months): 0; bacteria count ([3]; 1.00%, after 6 months): 0; effectiveness as a biocide ([3]; as low concentration as 0.50%, all three test solutions, long term (at least 6 months)): highly effective as a biocide; solubility in water [4]: 1400 µg/mL (≈ 6.44 mM); solubility in water (words) [4]: water dispersible

Question: With NCCCN(CCO)CCO [APDEA, N-(3-Aminopropyl) diethanolamine] as the molecule, how does the “bacteria count 1 mo after adding APDEA” value [5, 9] read?
Answer: 35

Question: What about the “bacteria count 1 wk after adding APDEA” value [5, 9] of the same molecule?
Answer: 73

Question: And the “bacteria count 3 mo after adding APDEA” value [5, 9]?
Answer: 83

Question: What about the “bacteria count 6 mo after adding APDEA” value [5, 9] of the same molecule?
Answer: 195

Question: What about the “bacteria count 1 d after adding APDEA” value [5, 9] of the same molecule?
Answer: 25

Question: And the “bacteria count 1 mo after adding APDEA” value [5, 10]?
Answer: 40

Question: And the “bacteria count 1 wk after adding APDEA” value [5, 10]?
Answer: 33

Question: What about the “bacteria count 3 mo after adding APDEA” value [5, 10] of the same molecule?
Answer: 65

Question: And the “bacteria count 6 mo after adding APDEA” value [5, 10]?
Answer: 96.6

Question: And the “bacteria count 1 d after adding APDEA” value [5, 10]?
Answer: 71

Question: What about the “bacteria count 1 mo after adding APDEA” value [5, 11] of the same molecule?
Answer: 60

Question: And the “bacteria count 1 wk after adding APDEA” value [5, 11]?
Answer: 33

Question: And the “bacteria count 3 mo after adding APDEA” value [5, 11]?
Answer: 84

Question: And the “bacteria count 6 mo after adding APDEA” value [5, 11]?
Answer: 45

Question: And the “bacteria count 1 d after adding APDEA” value [5, 11]?
Answer: 82

Question: And the “bacteria count 1 mo after adding APDEA” value [5, 12]?
Answer: 85

Question: What about the “bacteria count 1 wk after adding APDEA” value [5, 12] of the same molecule?
Answer: 66

Question: What about the “bacteria count 3 mo after adding APDEA” value [5, 12] of the same molecule?
Answer: 48

Question: What about the “bacteria count 6 mo after adding APDEA” value [5, 12] of the same molecule?
Answer: 79

Question: What about the “bacteria count 1 d after adding APDEA” value [5, 12] of the same molecule?
Answer: 29

Question: What about the “bacteria count 1 mo after adding APDEA” value [5, 13] of the same molecule?
Answer: 50

Question: And the “bacteria count 1 wk after adding APDEA” value [5, 13]?
Answer: 116

Question: What about the “bacteria count 3 mo after adding APDEA” value [5, 13] of the same molecule?
Answer: 38.8

Question: What about the “bacteria count 6 mo after adding APDEA” value [5, 13] of the same molecule?
Answer: 22

Question: And the “bacteria count 1 d after adding APDEA” value [5, 13]?
Answer: 59

Question: And the “bacteria count 1 mo after adding APDEA” value [5, 14]?
Answer: 98

Question: And the “bacteria count 1 wk after adding APDEA” value [5, 14]?
Answer: 95

Question: And the “bacteria count 3 mo after adding APDEA” value [5, 14]?
Answer: 177

Question: What about the “bacteria count 6 mo after adding APDEA” value [5, 14] of the same molecule?
Answer: 93

Question: And the “bacteria count 1 d after adding APDEA” value [5, 14]?
Answer: 71

Question: What about the “biocidal effect as sole biocide” value ([5]; 0.5 and 1 wt % to water phase) of the same molecule?
Answer: effects similar to NBDA

Question: What about the “bacteria count 1 mo after adding APDEA” value [5, 15] of the same molecule?
Answer: 78

Question: What about the “bacteria count 1 wk after adding APDEA” value [5, 15] of the same molecule?
Answer: 80

Question: What about the “bacteria count 3 mo after adding APDEA” value [5, 15] of the same molecule?
Answer: 134

Question: What about the “bacteria count 6 mo after adding APDEA” value [5, 15] of the same molecule?
Answer: 167

Question: And the “bacteria count 1 d after adding APDEA” value [5, 15]?
Answer: 66

Question: What about the “bacteria count 1 mo after adding APDEA” value [5, 16] of the same molecule?
Answer: 100

Question: What about the “bacteria count 1 wk after adding APDEA” value [5, 16] of the same molecule?
Answer: 22.4

Question: What about the “bacteria count 3 mo after adding APDEA” value [5, 16] of the same molecule?
Answer: 99

Question: And the “bacteria count 6 mo after adding APDEA” value [5, 16]?
Answer: 132

Question: And the “bacteria count 1 d after adding APDEA” value [5, 16]?
Answer: 12

Question: And the “bacteria count 1 mo after adding APDEA” value [5, 17]?
Answer: 110

Question: And the “bacteria count 1 wk after adding APDEA” value [5, 17]?
Answer: 115

Question: What about the “bacteria count 3 mo after adding APDEA” value [5, 17] of the same molecule?
Answer: 98

Question: And the “bacteria count 6 mo after adding APDEA” value [5, 17]?
Answer: 38

Question: And the “bacteria count 1 d after adding APDEA” value [5, 17]?
Answer: 75

Question: And the “bacteria count 1 mo after adding APDEA” value [5, 18]?
Answer: 98

Question: What about the “bacteria count 1 wk after adding APDEA” value [5, 18] of the same molecule?
Answer: 81

Question: And the “bacteria count 3 mo after adding APDEA” value [5, 18]?
Answer: 92

Question: And the “bacteria count 6 mo after adding APDEA” value [5, 18]?
Answer: 98

Question: And the “bacteria count 1 d after adding APDEA” value [5, 18]?
Answer: 69

Question: And the “bacteria count 1 mo after adding APDEA” value [5, 19]?
Answer: 33

Question: What about the “bacteria count 1 wk after adding APDEA” value [5, 19] of the same molecule?
Answer: 18

Question: And the “bacteria count 3 mo after adding APDEA” value [5, 19]?
Answer: 78

Question: And the “bacteria count 6 mo after adding APDEA” value [5, 19]?
Answer: 20

Question: And the “bacteria count 1 d after adding APDEA” value [5, 19]?
Answer: 45

Question: What about the “bacteria count 1 mo after adding APDEA” value [5, 20] of the same molecule?
Answer: 75

Question: What about the “bacteria count 1 wk after adding APDEA” value [5, 20] of the same molecule?
Answer: 136

Question: And the “bacteria count 3 mo after adding APDEA” value [5, 20]?
Answer: 151

Question: What about the “bacteria count 6 mo after adding APDEA” value [5, 20] of the same molecule?
Answer: 35

Question: What about the “bacteria count 1 d after adding APDEA” value [5, 20] of the same molecule?
Answer: 72

Question: What about the “solubility in water (words)” value [4] of the same molecule?
Answer: water soluble

Question: Which “LD50 (rat, oral)” value [6] does the source give for [Cl-].[Na+] [NaCl, reference compound] here?
Answer: 3000 mg
